{
  "source": "patent US20030027981A1",
  "about": "“Urokinase-type plasminogen activator receptor” (priority 1989, published 2003)",
  "molecules": {"B1": {"name": "PAI-2: human type-2 plasminogen activator inhibitor purified from U937 cells (protein, UniProt P05120 1-415, looked up)", "Plasminogen activator …": "MEDLCVANTLFALNLFKHLAKASPTQNLFLSPWSISSTMAMVYMGSRGSTEDQMAKVLQFNEVGANAVTPMTPENFTSCGFMQQIQKGSYPDAILQAQAADKIHSSFRSLSSAINASTGNYLLESVNKLFGEKSASFREEYIRLCQKYYSSEPQAVDFLECAEEARKKINSWVKTQTKGKIPNLLPEGSVDGDTRMVLVNAVYFKGKWKTPFEKKLNGLYPFRVNSAQRTPVQMMYLREKLNIGYIEDLKAQILELPYAGDVSMFLLLPDEIADVSTGLELLESEITYDKLNKWTSKDKMAEDEVEVYIPQFKLEEHYELRSILRSMGMEDAFNKGRANFSGMSERNDLFLSEVFHQAMVDVNEEGTEAAAGTGGVMTGRTGHGGPQFVADHPFLFLIMHKITNCILFFGRFSSP"}},
  "key": {"u-PA": {"tested_on": "u-PA", "assay": "u-PA activity in medium of HT-1080 cultures (immunocapture assay)", "format": "cell-based, human", "method": "Cell culture supernatants were assayed for pro-u-PA and active u-PA by the following modification of an immunocapture method (Stephens et al., 1988; Stephens et al., 1987). Microtitre wells of polystyrene immunoplates (type 269620, A/S Nunc, Roskilde, Denmark) were coated overnight at 37° C. with 50 μl of a solution of goat IgG antibodies to human u-PA (cat. #398, American Diagnostica). The coating solution contained 2.5 μg of IgG per ml of […] sodium carbonate (pH 9.8). After rinsing, the wells were treated with conditioned medium ([…]) for 2 hours at 23° C., then rinsed again. Half the wells were then treated with 50 μl of freshly prepared 2 μM p-nitrophenyl guanidinobenzoate (NPGB, Sigma) (Danø, K., and E. Reich, “Plasminogen activator from cells transformed by an oncogenic virus—Inhibitors of the activator reaction”, Biochim. Biophys. Acta 566: 138-151, 1979) for 20 minutes at 37° C. The other half (controls) received 50 μl of rinsing buffer (0.05% Tween 20 in PBS). After rinsing, u-PA was assayed in all the wells by addition of 40 μl of plasminogen solution (100 μg/ml in assay buffer consisting of 50 mM sodium glycinate (pH 7.8), 0.1% Triton X-100, 0.1% gelatin and 10 mM 6-aminocaproic acid which also contained a very low concentration of plasmin (10 ng/ml)), and incubation took place for 30 minutes at 37° C. This concentration of plasmin in the plasminogen incubation was sufficient to enable full realization of the potential activity of pro-u-PA (cf. Petersen et al., 1988). The plasmin produced by this incubation was assayed by its thioesterase activity (Green, G. D. G., and E. Shaw, “Thiobenzyl benzyloxycarbonyl-L-lysinate, substrate for a sensitive colorimetric assay for trypsin-like enzymes”, Anal. Biochem. 93: 223-226, 1979) by the addition of 200 μl of a solution containing 200 mM potassium phosphate (pH 7.5), 200 MM KCl, 0.1% Triton X-100, 220 μM Z-lysine thiobenzyl ester (Peninsula Laboratories, Belmont, Calif.) and 220 μM 5,5′-dithiobis(2-nitrobenzoic acid) (Sigma). This mixture was incubated for 30 minutes at 37° C., and the absorbancies of the wells were read at 405 nm. Active u-PA (60,000 IU/mg) was purchased from Calbiochem-Behring (La Jolla, Calif.) and pro-u-PA (potential activity 90,000 IU/mg) was obtained from American Diagnostica.\nThe following additions were made to cell layers growing in MEM medium (0.5 ml) containing 10% heat-inactivated and plasminogen-depleted fetal calf serum: native human plasminogen (Plg, 40 μg/ml); anti-catalytic monoclonal antibody to human u-PA (10 μg/ml); anti-catalytic monoclonal antibody to human t-PA (10 μg/ml); PAI-2 (titration equivalent of 3.6 UI u-PA/ml); anti-catalytic monoclonal antibody to human plasmin (20 μg/ml); aprotinin (200 KIU/ml); tranexamic acid (TA, as shown). The cultures were incubated for the times shown before assay of cell-bound plasmin. The incubation with plasminogen was used as the 100% control for bound plasmin.\nConfluent cell layers in serum medium (0.5 ml) were preincubated for 1 hour at 37° C. with an anti-catalytic monoclonal antibody to human u-PA (10 μg/ml) or PAI-2 (titration equivalent of 3.6 IU u-PA/ml). The cells were then rinsed three times with serum-free MEM medium before incubation for 3 hours at 37° C. with MEM medium containing 10% heat-inactivated and plasminogen-depleted fetal calf serum and native human plasminogen (Plg, 40 μg/ml). The incubation with plasminogen was used as the 100% control for bound plasmin while the control for u-PA was the incubation without plasminogen."}, "laminin": {"molecular_target": "laminin", "details": "immobilized laminin; cited from earlier work"}, "u-PAR": {"molecular_target": "u-PAR (Homo sapiens, UniProt Q03405)", "assay": "Chemical cross-linking of 125I-ATF to purified u-PAR", "format": "binding", "details": "unlabelled reagent 100 nM, u-PAR approx. 1 nM, 125I-ATF approx. 1 nM", "method": "B) Affinity column eluate was diluted to yield an approximate concentration of u-PAR of 1 nM during the assay. The samples were preincubated alone (lane 2) or in the presence of the following unlabelled reagents at a concentration of 100 nM: bovine serum albumin (lane 3), t-PA (lane 4), plasminogen (lane 5), murine epidermal growth factor (lane 6), ATF (lane 7), active 54 kD u-PA (lane 8), DFP-inactivated 54 kD u-PA (lane 9). After preincubation for 15 min at room temperature, ^125I-labelled ATF (approximately 1 nM) was added, followed by incubation for 1 hour at 4° C. After incubation, chemical cross-linking was performed with DSS, after which the samples were analyzed by SDS-PACE on a 6-16% gradient gel under non-reducing conditions and autoradiography. […] Electrophoretic mobilities of molecular weight standard proteins are inducated (kD).\nCross-linking of u-PAR in complex mixtures or purified fractions to ^125I-labelled ATF was performed as described for solubilized receptor (Nielsen et al., 1988), except that 2 mM disuccinimidylsuberate (DSS) was used for cross-linking. Cross-linking of purified u-PAR to DFP-treated u-PA for analysis by SDS-PAGE and silver-staining was performed in the same manner, except that non-labelled DFP-treated u-PA was used as the ligand."}, "cultured cells": {"tested_on": "cultured cells", "details": "plasminogen, cultured cells; cited from earlier work"}, "fibronectin": {"molecular_target": "fibronectin (Homo sapiens, UniProt P02751)", "sequence (P02751 32-2477, species assumed)": "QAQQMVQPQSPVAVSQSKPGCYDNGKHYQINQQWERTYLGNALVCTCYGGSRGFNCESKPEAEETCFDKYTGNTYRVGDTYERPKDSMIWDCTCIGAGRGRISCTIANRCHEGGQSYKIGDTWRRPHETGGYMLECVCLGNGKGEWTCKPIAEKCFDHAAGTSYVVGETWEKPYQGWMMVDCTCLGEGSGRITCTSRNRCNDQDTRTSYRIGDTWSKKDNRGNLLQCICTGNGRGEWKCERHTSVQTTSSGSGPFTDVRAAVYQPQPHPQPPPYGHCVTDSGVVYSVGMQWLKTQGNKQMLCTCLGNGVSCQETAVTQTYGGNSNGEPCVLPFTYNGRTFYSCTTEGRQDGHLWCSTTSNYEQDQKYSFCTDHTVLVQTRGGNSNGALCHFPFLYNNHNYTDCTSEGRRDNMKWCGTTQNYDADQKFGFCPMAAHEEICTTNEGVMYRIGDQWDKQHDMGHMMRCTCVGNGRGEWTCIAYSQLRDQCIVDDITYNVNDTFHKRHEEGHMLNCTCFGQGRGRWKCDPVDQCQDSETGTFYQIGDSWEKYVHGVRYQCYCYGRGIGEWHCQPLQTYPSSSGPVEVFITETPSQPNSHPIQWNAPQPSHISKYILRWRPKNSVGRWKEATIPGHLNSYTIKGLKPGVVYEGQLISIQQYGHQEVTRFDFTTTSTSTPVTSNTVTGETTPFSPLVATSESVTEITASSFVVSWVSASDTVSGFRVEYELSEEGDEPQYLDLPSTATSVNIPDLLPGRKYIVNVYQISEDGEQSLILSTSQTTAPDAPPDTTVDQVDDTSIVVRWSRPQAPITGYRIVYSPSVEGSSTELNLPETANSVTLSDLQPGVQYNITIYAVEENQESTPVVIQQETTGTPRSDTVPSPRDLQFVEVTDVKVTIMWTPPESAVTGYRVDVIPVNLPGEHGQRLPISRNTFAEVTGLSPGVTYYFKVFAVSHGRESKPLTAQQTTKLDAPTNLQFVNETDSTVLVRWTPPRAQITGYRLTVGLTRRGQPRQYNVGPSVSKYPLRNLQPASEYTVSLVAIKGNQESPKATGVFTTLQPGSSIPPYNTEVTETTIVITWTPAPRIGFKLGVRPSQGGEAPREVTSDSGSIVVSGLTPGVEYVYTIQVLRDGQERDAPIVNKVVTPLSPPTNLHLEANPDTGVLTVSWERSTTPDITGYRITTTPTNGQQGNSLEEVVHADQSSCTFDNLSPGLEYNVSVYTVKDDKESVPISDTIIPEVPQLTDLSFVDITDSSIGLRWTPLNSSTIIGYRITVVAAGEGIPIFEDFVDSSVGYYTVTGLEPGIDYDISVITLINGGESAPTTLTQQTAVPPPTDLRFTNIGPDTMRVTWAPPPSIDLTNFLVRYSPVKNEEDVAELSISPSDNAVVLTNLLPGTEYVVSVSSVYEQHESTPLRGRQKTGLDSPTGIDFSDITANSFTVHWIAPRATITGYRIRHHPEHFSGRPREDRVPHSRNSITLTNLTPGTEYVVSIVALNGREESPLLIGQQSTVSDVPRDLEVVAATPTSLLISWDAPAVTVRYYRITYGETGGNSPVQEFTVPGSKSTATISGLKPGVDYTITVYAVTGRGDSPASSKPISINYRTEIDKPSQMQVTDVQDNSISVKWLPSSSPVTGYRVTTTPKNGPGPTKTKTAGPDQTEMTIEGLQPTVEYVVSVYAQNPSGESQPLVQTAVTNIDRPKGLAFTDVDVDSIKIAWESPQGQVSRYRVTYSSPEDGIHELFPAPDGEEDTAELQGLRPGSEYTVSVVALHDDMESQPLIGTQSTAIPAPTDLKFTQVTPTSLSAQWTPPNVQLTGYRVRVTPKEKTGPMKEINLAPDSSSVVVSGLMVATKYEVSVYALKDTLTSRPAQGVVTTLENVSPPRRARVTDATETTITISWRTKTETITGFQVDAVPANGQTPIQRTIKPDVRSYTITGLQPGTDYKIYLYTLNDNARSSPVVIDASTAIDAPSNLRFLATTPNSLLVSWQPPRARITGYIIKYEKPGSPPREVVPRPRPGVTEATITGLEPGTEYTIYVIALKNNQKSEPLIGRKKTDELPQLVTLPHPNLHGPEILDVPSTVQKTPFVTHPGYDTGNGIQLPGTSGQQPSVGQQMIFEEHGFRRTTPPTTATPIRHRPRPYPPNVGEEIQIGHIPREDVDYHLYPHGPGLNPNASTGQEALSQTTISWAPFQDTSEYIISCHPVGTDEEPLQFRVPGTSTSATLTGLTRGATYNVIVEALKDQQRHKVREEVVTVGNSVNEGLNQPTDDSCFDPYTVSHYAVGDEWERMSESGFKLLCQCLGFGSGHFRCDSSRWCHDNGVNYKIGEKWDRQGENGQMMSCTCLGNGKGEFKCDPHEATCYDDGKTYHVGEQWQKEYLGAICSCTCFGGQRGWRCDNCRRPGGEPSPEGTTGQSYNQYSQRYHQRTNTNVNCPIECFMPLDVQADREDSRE", "details": "immobilized fibronectin; cited from earlier work"}, "uPAR-bound u-PA": {"molecular_target": "uPAR-bound u-PA (Homo sapiens, UniProt P00749)", "format": "cell-based", "method": "U937 cells were grown in suspension in RPMI 1640 medium supplemented with 5% heat-inactivated fetal calf serum. PMA-stimulation of U937 cells was performed at a cell density of […] cells/ml with 150 nM PMA for 4 days. The adherent cell population was harvested with a rubber scraper and resuspended in PBS. […] The effect of PAI's on the activity of cell-bound u-PA was determined by the addition of varying concentrations of PAI-1 (0.18-18.4 nM) or PAI-2 (1.13-56.7 nM) to the incubations at the same time as the addition of plasminogen. Curves were then constructed of plasmin concentration against time. […] [pln]∞ was calculated from the relationship: [[…]]0) equation.2 where Δ[pln]0 is the initial rate of plasmin generation which was determined in control incubations in the absence of inhibitors. […] Association rate constants (second-order rate constants) were calculated from the slope of the line of double reciprocal plots of kapp against inhibitor concentration."}, "[1]": {"details": "3 h, serum medium with Plg 40 μg/ml, additions as b555, control without Plg = 100"}, "[2]": {"details": "17 h, serum medium with Plg 40 μg/ml, additions as b555, control without Plg = 100"}},
  "note": "Where two headings read alike, the source gives them in different places.",
  "data": [
    {"molecule": "NC[C@H]1CC[C@H](C(=O)O)CC1", "note": "[TA, tranexamic acid]", "values": [
      {"measurement": "u-PA activity in medium (%)", "setting": "u-PA; 3 h, Plg 40 μg/ml + TA 10 μM", "value": 116, "unit": "%"},
      {"measurement": "u-PA activity in medium (%)", "setting": "u-PA; 3 h, Plg 40 μg/ml + TA 100 μM", "value": 92, "unit": "%"},
      {"measurement": "u-PA activity in medium (%)", "setting": "u-PA; 17 h, Plg 40 μg/ml + TA 10 μM", "value": 87, "unit": "%"},
      {"measurement": "u-PA activity in medium (%)", "setting": "u-PA; 17 h, Plg 40 μg/ml + TA 100 μM", "value": 95, "unit": "%"}
    ]},
    {"molecule": "Plg: native human plasminogen (glutamic acid N-terminal) purified from human plasma on lysine-Sepharose", "values": [
      {"measurement": "Kd", "setting": "laminin", "value": 3, "unit": "nM"},
      {"measurement": "Competition for binding and cross-linking of 125I-labelled ATF to purified u-PAR", "setting": "u-PAR", "value": "no competition"},
      {"measurement": "u-PA activity in medium (%)", "setting": "u-PA; [1]", "value": 111, "unit": "%"},
      {"measurement": "u-PA activity in medium (%)", "setting": "u-PA; [2]", "value": 83, "unit": "%"},
      {"measurement": "Kd", "setting": "cultured cells", "value": 1000, "unit": "nM"},
      {"measurement": "Kd", "setting": "fibronectin", "value": 90, "unit": "nM"}
    ]},
    {"molecule": "aprotinin", "values": [
      {"measurement": "u-PA activity in medium (%)", "setting": "u-PA; [1]", "value": 93, "unit": "%"},
      {"measurement": "u-PA activity in medium (%)", "setting": "u-PA; [2]", "value": 99, "unit": "%"}
    ]},
    {"molecule": "B1", "values": [
      {"measurement": "u-PA activity in medium (%)", "setting": "u-PA; [1]", "value": 89, "unit": "%"},
      {"measurement": "u-PA activity in medium (%)", "setting": "u-PA; [2]", "value": 77, "unit": "%"},
      {"measurement": "u-PA activity in medium (%)", "setting": "u-PA; cells preincubated 1 h with inhibitor, rinsed, then 3 h with Plg 40 μg/ml in serum medium", "value": 86, "unit": "%"},
      {"measurement": "Rate of inhibition of cell-bound u-PA relative to u-PA in solution", "setting": "uPAR-bound u-PA; U937 cells", "value": "approximately 60%"},
      {"measurement": "Association rate constant", "setting": "uPAR-bound u-PA; u-PA bound to uPAR on PMA-stimulated U937 cells", "value": 110000, "unit": "M⁻¹ s⁻¹"},
      {"measurement": "Association rate constant", "setting": "uPAR-bound u-PA; u-PA bound to uPAR on U937 cells", "value": 330000, "unit": "M⁻¹ s⁻¹"}
    ]}
  ]
}
